Biological target: T1, human HDAC8 (Homo sapiens, UniProt Q9BY41)
T1 construct: purchased Enzo Life Sciences BML-SE145-0100
T1 sequence (Q9BY41 1-377): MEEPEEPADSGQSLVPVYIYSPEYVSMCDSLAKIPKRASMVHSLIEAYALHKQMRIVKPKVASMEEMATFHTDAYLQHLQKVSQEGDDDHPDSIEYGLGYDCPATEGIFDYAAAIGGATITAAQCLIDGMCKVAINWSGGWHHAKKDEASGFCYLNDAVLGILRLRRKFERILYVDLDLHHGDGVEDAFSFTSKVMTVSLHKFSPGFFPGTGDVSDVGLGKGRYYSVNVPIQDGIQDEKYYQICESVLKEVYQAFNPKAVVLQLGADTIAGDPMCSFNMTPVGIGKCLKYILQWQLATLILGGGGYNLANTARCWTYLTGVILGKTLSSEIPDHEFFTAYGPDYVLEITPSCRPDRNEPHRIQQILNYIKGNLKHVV
Experiment: Human HDAC enzyme inhibitor Fluor-de-Lys assay, HDAC8
Type: biochemical
Conditions: 1.3 nM enzyme, 200 μM substrate BML-KI178, 3 h pre-incubation, 60 min reaction; read-out: HDAC8_IC50
Description: Recombinant human HDAC8 (catalog number BML-SE145-0100) and HDAC10 (catalog number BML-SE559-0050) enzymes, HDAC substrates BML-KI104 and BML-KI178, and HDAC developer solutions BML-KI105 and BML-KI176 were purchased from Enzo Life Sciences (Farmingdale, NY). Recombinant human HDAC5 and HDAC11 were purchased from BPS Bioscience (San Diego, CA)(catalog numbers 50045 and 50021). Substrate Boc-Lys(TFA)-AMC was obtained from Bachem (Bupendorf, Switzerland) (catalog number 1-1985). HDAC inhibitor suberoylanilide hydroxamic acid (SAHA) was obtained from Indofine (Hillsborough Township, NJ) and trichostatin A (TSA) was obtained from Sigma-Aldrich (St. Louis, MO). […] HEPES pH 8.0 was obtained from Boston BioProducts (Ashland, MA), Tween-20 from Fisher Scientific (Hampton, NH)(catalog number BP337), TCEP from Calbiochem and 7.5% bovine serum albumin (BSA) from Life Technologies (Carlsbad, CA) (catalog number 15260037). 384-well, black assay plates were obtained from Corning (Corning, NY) (catalog number 3575).
The histone deacetylase activities of HDAC1, HDAC2, HDAC3, HDAC6, and HDAC8 were measured in modified Fluor-de-Lys assays in 384-well format. In this assay, HDAC enzymes are initially incubated with an ε-acetyl (or -trifluoroacetyl)-L-lysine-containing substrate with a C-terminal amide having aminomethylcoumarin as the amine component. HDACs cleave the ε-acetyl group, rendering the resulting product susceptible to AMC cleavage by trypsin. The released AMC is then detected by its fluorescence.
The HDAC 1, 2 assays employed buffer A, which contained 20 mM HEPES, pH 8.0, 1 mM MgCl2, 137 mM NaCl, 2.7 mM KCl, 0.05% BSA. The HDAC3/SMRT assay employed buffer B, consisting of 20 mM HEPES, pH 8.0, 1 mM MgCl2, 50 mM NaCl, 2.7 mM KCl, 0.05% BSA, 0.005% Tween 20, and 10 μM IP4. The HDAC6 assay employed buffer C, consisting of 20 mM HEPES, pH 8.0, 1 mM MgCl2, 137 mM NaCl, 2.7 mM KCl, 0.5 mM TCEP (Calbiochem) and 0.05% BSA. The HDAC8 assay employed buffer D, consisting of 20 mM HEPES, pH 8.0, 1 mM MgCl2, 100 mM NaCl, 20 mM KCl, 0.1% n-octyl-β-D-glucoside (Anatrace, Maumee, OH) and 0.05% BSA. All steps were performed at room temperature (23° C.). The assay was performed by pre-incubating serial dilutions of test compounds with the target HDAC prior to initiation with substrate. Each compound was titrated in a 10-point dose response, using a 1:3 fold dilution scheme, with 0.15 ul of solution added by ECHO555 to the plate, followed by the addition of 20 μl of the appropriate HDAC isoform diluted in appropriate assay buffer. […] Final conditions used for each assay were: 1. HDAC 1, 0.3 nM total enzyme, 20 μM substrate BML-K1104; 2. HDAC 2, 1.5 nM total enzyme, 40 μM substrate BML-K1104; 3. HDAC 3/SMRT, 0.3 nM total enzyme, 20 μM substrate BML-K1104; 4. HDAC 6, 1.3 nM total enzyme, 2.5 μM substrate BML-K1104; 5. HDAC 8, 1.3 nM total enzyme, 200 μM substrate BML-K1178; the final high dose of test compound was 30 μM. For potent compounds, 900 nM was used as the final high dose. The reactions were stopped and developed by addition of 30 ul of HDAC developer solution containing a saturating level of HDAC inhibitor as follows: 1.

**Q.** For `CN1CC(C(=O)N[C@@H](COCCCC(=O)c2ccon2)c2[nH]c(-c3ccc(F)cc3)nc2Cl)C1` [Compound 16, N-[(1R)-1-[4-chloro-2-(4-fluorophenyl)-1H-imidazol-5-yl]-2-(4-isoxazol-3-yl-4-oxobutoxy)ethyl]-1-methylazetidine-3-carboxamide], which IC50 is on record?
**A.** > 900 nM

**Q.** How did the IC50 turn out when `CNC(=O)C(=O)CCCOC[C@H](NC(=O)C12CCN(CC1)CC2)c1ncc(-c2cc3ccccc3nc2OC)[nH]1` [Compound 9, N-[(1R)-1-[5-(2-methoxyquinolin-3-yl)-1H-imidazol-2-yl]-2-{[5-(methylamino)-4,5-dioxopentyl]oxy}ethyl]-1-azabicyclo[2.2.2]octane-4-carboxamide] was run?
**A.** 3370 nM

**Q.** Which IC50 does the source give for `CN1CCC2(CC1)C[C@@H]2C(=O)N[C@@H](COCCCC(=O)c1ccon1)c1[nH]c(-c2ccc(F)cc2)nc1Cl` [Compound 18, (1S)-N-[(1R)-1-[4-chloro-2-(4-fluorophenyl)-1H-imidazol-5-yl]-2-(4-isoxazol-3-yl-4-oxobutoxy)ethyl]-6-methyl-6-azaspiro[2.5]octane-1-carboxamide] here?
**A.** > 900 nM

**Q.** For `CCC(=O)CCCOC[C@H](NC(=O)c1cncs1)c1ncc(-c2cc3ccccc3nc2OC)[nH]1` [Compound 5, N-{(1R)-1-[5-(2-methoxyquinolin-3-yl)-1H-imidazol-2-yl]-2-[(4-oxohexyl)oxy]ethyl}-1,3-thiazole-5-carboxamide], which IC50 is on record?
**A.** 2720 nM

**Q.** `Cc1ccc2cc(-c3cnc([C@H](CSCCCC(=O)c4ncco4)NC(=O)[C@H]4CC45CCN(C)CC5)[nH]3)ccc2n1` [Compound 21, (1S)-6-methyl-N-[(1R)-1-[5-(2-methylquinolin-6-yl)-1H-imidazol-2-yl]-2-{[4-(1,3-oxazol-2-yl)-4-oxobutyl]sulfanyl}ethyl]-6-azaspiro[2.5]octane-1-carboxamide] was tested. Which IC50 did it give?
**A.** 1050 nM

**Q.** `CCC(=O)CCCOC[C@H](NC(=O)C12CCN(CC1)CC2)c1ncc(-c2cc3ccccc3nc2OC)[nH]1` [Compound 6, N-{(1R)-1-[5-(2-methoxyquinolin-3-yl)-1H-imidazol-2-yl]-2-[(4-oxohexyl)oxy]ethyl}-1-azabicyclo[2.2.2]octane-4-carboxamide] was tested. Which IC50 did it give?
**A.** > 45000 nM

**Q.** With `CN(C)CC(=O)N[C@@H](COCCCC(=O)c1ccon1)c1[nH]c(-c2ccc(F)cc2)nc1Cl` [Compound 17, N-[(1R)-1-[4-chloro-2-(4-fluorophenyl)-1H-imidazol-5-yl]-2-(4-isoxazol-3-yl-4-oxobutoxy)ethyl]-N~2~,N~2~- dimethylglycinamide] as the compound, how does the IC50 read?
**A.** > 900 nM

**Q.** How did the IC50 turn out when `CNC(=O)C(=O)CCCOC[C@H](NC(=O)c1cncs1)c1ncc(-c2cc3ccccc3nc2OC)[nH]1` [Compound 8, N-[(1R)-1-[5-(2-methoxyquinolin-3-yl)-1H-imidazol-2-yl]-2-{[5-(methylamino)-4,5-dioxopentyl]oxy}ethyl]-1,3-thiazole-5-carboxamide] was run?
**A.** 3860 nM

**Q.** With `COc1nc2ccccc2cc1-c1cnc([C@H](COCCCC(=O)c2ncco2)NC(=O)CN(C)C)[nH]1` [Compound 13, N-{(1R)-1-[5-(2-methoxyquinolin-3-yl)-1H-imidazol-2-yl]-2-[4-(1,3-oxazol-2-yl)-4-oxobutoxy]ethyl}-N~2~,N~2~- dimethylglycinamide] as the compound, how does the IC50 read?
**A.** 17000 nM

**Q.** For `COc1nc2ccccc2cc1-c1cnc([C@H](COCCCC(=O)c2ncco2)NC(=O)c2cncs2)[nH]1` [Compound 10, N-{(1R)-1-[5-(2-methoxyquinolin-3-yl)-1H-imidazol-2-yl]-2-[4-(1,3-oxazol-2-yl)-4-oxobutoxy]ethyl}-1,3-thiazole-5-carboxamide], which IC50 is on record?
**A.** 1380 nM

**Q.** Which IC50 does the source give for `COc1nc2ccccc2cc1-c1cnc([C@H](COCCCC(=O)c2ncco2)NC(=O)[C@H]2CC23CCN(C)CC3)[nH]1` [Compound 11, (1S)-N-{(1R)-1-[5-(2-methoxyquinolin-3-yl)-1H-imidazol-2-yl]-2-[4-(1,3-oxazol-2-yl)-4-oxobutoxy]ethyl}-6-methyl-6-azaspiro[2.5]octane-1-carboxamide] here?
**A.** 7780 nM

**Q.** Which IC50 does the source give for `CCC(=O)CCCOC[C@H](NC(=O)[C@H]1CC12CCN(CC)CC2)c1ncc(-c2cc3ccccc3nc2OC)[nH]1` [Compound 7, (1S)-6-ethyl-N-{(1R)-1-[5-(2-methoxyquinolin-3-yl)-1H-imidazol-2-yl]-2-[(4-oxohexyl)oxy]ethyl}-6-azaspiro[2.5]octane-1-carboxamide] here?
**A.** > 45000 nM

**Q.** How did the IC50 turn out when `COc1cc2nc(C)ccc2cc1-c1cnc([C@H](COCCCC(=O)c2cc(C)on2)NC(=O)C2CN(C)C2)[nH]1` [Compound 19, N-{(1R)-1-[5-(7-methoxy-2-methylquinolin-6-yl)-1H-imidazol-2-yl]-2-[4-(5-methylisoxazol-3-yl)-4-oxobutoxy]ethyl}-1-methylazetidine-3-carboxamide] was run?
**A.** > 900 nM

**Q.** For `N[C@@H](COCCCC(=O)c1ccon1)c1ncc(-c2ccccc2F)[nH]1` [Compound 2, (R)-4-(2-amino-2-(5-(2-fluorophenyl)-1H-imidazol-2-yl)ethoxy)-1-(isoxazol-3-yl)butan-1-one], which IC50 is on record?
**A.** > 900 nM

**Q.** Which IC50 does the source give for `COc1nc2ccccc2cc1-c1cnc([C@H](COCCCC(=O)c2ccon2)NC(=O)CN(C)C)[nH]1` [Compound 14, N-{(1R)-2-(4-isoxazol-3-yl-4-oxobutoxy)-1-[5-(2-methoxyquinolin-3-yl)-1H-imidazol-2-yl]ethyl}-N~2~,N~2~- dimethylglycinamide] here?
**A.** 1760 nM

**Q.** `CN1CC(C(=O)N[C@@H](COCCCC(=O)c2ccon2)c2ncc(-c3ccccc3F)[nH]2)C1` [Compound 15, N-[(1R)-1-[5-(2-fluorophenyl)-1H-imidazol-2-yl]-2-(4-isoxazol-3-yl-4-oxobutoxy)ethyl]-1-methylazetidine-3-carboxamide] was tested. Which IC50 did it give?
**A.** > 900 nM

**Q.** With `COc1nc2ccccc2cc1-c1cnc([C@H](COCCCC(=O)c2ncco2)NC(=O)C23CCN(CC2)CC3)[nH]1` [Compound 12, N-{(1R)-1-[5-(2-methoxyquinolin-3-yl)-1H-imidazol-2-yl]-2-[4-(1,3-oxazol-2-yl)-4-oxobutoxy]ethyl}-1-azabicyclo[2.2.2]octane-4-carboxamide] as the compound, how does the IC50 read?
**A.** 5550 nM

**Q.** Which IC50 does the source give for `COc1cc2nc(C)ccc2cc1-c1cnc([C@H](COCCCC(=O)c2cc(C)on2)NC(=O)[C@H]2CC23CCN(C)CC3)[nH]1` [Compound 20, (1S)-N-{(1R)-1-[5-(7-methoxy-2-methylquinolin-6-yl)-1H-imidazol-2-yl]-2-[4-(5-methylisoxazol-3-yl)-4-oxobutoxy]ethyl}-6-methyl-6-azaspiro[2.5]octane-1-carboxamide] here?
**A.** > 900 nM

Reference: patent publication US12365674B2, “Inhibitors of histone deacetylase useful for the treatment or prevention of HIV infection” (Merck Sharp & Dohme LLC, priority 2019, dated 2025)
